This is an account of results in patent US9890185B2, “Urea derivatives useful as kinase inhibitors” (Respivert Limited, priority 2013, dated 2018).

The target in assay [1] is p38 MAPK β (Homo sapiens (Human), UniProt Q15759). Put plainly: KINOMEscan enzyme binding assay (p38 MAPKβ). As to conditions: KINOMEscan technology; read-out: Dissociation Constant, p38 MAPK β. The procedure:
Kinase enzyme binding activities of compounds disclosed herein may be determined using a proprietary assay which measures active site-directed competition binding to an immobilized ligand (Fabian, M. A. et al., Nature Biotechnol., 2005, 23:329-336). These assays may be conducted by DiscoverX (formerly Ambit; San Diego, Calif.). The percentage inhibition produced by incubation with a test compound may be calculated relative to the non-inhibited control.

The subject of assay [2] is TNBS-induced colitis. Put plainly: TNBS-induced colitis in mice (in vivo assay iv). More on the design: species or system BDF1 mice; TNBS Ulcer grade / TNBS LP inflammation: scale not given here. Conditions: SMEDDS vehicle; for Activity in in vivo model of colonic inflammation (histopathology analysis) / Inflammatory cell infiltrate in the reticular and laminar propria zone: TNBS colitis over 2 days; for Ulcer grade and epithelial repair compared to the vehicle control: dosed orally at 5 mg/kg, 2 days; for TNBS LP inflammation / TNBS Ulcer grade: mice, 5 mg/kg orally, conducted over 2 days, histopathology. The procedure:
Non-fasted, 10-12 week old, male BDF1 mice are dosed by oral gavage twice daily with either vehicle (5 mL/kg), reference item (Budesonide 2.5 mg/kg) or test compound (1 or 5 mg/kg) one day before (Day −1) stimulation of the inflammatory response by treatment with 2,4,6-trinitrobenzenesulphonic acid (TNBS) (15 mg/mL in 50% ethanol/50% saline). On Day 0 of the study TNBS (200 μL) is administered intra-colonically via a plastic catheter with BID dosing of the vehicle, reference or test compound continuing for 2 or 4 days. During the study animals are weighed every day and stool observations are made and recorded as a score, based on stool consistency. At the time of sacrifice on Day 2 (or Day 4) the large intestine is removed and the length and weight recorded. Sections of the colon are taken for histopathology scoring to determine disease severity.

Assay [3] deals with endotoxin (LPS)-induced uveitis. Put plainly: Endotoxin-induced uveitis in rats (in vivo assay vi). More on the design: species or system Lewis rats. As to conditions: for IL-1β Anterior tissue / IL-1β Posterior tissue: LPS-stimulated rats, topical to eye; for Cell counts: eyes of LPS-stimulated rats, topical. As for the experimental part:
Male, Lewis rats (6-8 weeks old, Charles River UK Limited) are housed in cages of 3 at 19-21° C. with a 12 h light/dark cycle (07:00/19:00) and fed a standard diet of rodent chow and water ad libitum. […] Untreated rats are injected with PBS. […] Before administration, the solution or suspension to be administered is agitated for 5 minutes to ensure a uniform suspension. 6 hours after LPS dosing, animals are euthanized by overdose with pentobarbitone (i.v.). Following euthanasia, the right eye of each animal is enucleated and dissected into front (anterior) and back (posterior) sections around the lens. Each section is weighed and homogenised in 500 μL of sterile phosphate buffered saline followed by 20 minutes centrifugation at 12000 rpm at 4° C. The resulting supernatant is divided into 3 aliquots and stored at −80° C. until subsequent cytokine analysis by R&D DuoSet ELISA.

Sequence of p38 MAPK β (Q15759 whole entry): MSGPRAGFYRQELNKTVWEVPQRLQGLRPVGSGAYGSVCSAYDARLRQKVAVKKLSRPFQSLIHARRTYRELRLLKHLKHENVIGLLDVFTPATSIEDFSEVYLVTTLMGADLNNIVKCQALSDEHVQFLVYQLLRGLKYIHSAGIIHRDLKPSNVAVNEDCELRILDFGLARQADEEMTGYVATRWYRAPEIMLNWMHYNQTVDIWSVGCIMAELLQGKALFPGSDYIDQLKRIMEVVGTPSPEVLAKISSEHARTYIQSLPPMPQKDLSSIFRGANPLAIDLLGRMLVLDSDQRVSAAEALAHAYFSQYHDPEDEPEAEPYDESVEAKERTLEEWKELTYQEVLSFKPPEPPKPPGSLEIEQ

In the case of `COc1c(NC(=O)Nc2ccc(Oc3ccnc(Nc4ccccc4)c3)c3ccccc23)cc(C(C)(C)C)cc1[S+](C)[O-]` (racemic) [Example 12, 1-(5-(tert-Butyl)-2-methoxy-3-(methylsulfinyl)phenyl)-3-(4-((2-(phenylamino)pyridin-4-yl)oxy)naphthalen-1-yl)urea], the Kd in assay [1] was determined as 57 nM.

`COCCOCCOCCOc1cc(Nc2cc(Oc3ccc(NC(=O)Nc4cc(C(C)(C)C)cc(S(C)(=O)=O)c4OC)c4ccccc34)ccn2)cc(OC)c1` [Example 9, 1-(5-(tert-Butyl)-2-methoxy-3-(methylsulfonyl)phenyl)-3-(4-((2-((3-methoxy-5-(2-(2-(2-methoxyethoxy)ethoxy)ethoxy)phenyl)amino)pyridin-4-yl)oxy)naphthalen-1-yl)urea]: in assay [2], the “Activity in in vivo model of colonic inflammation (histopathology analysis)” value (“Activity … (histopathology analysis)” below) is “significant activity”; the “Inflammatory cell infiltrate in the reticular and laminar propria zone” value (from here on “Inflammatory cell infiltrate”) is listed as “marked reductions”; the “Ulcer grade and epithelial repair compared to the vehicle control” value was “marked improvements”; the “TNBS LP inflammation” value is given as 2.9 ± 0.3. Also, in assay [2], the “TNBS Ulcer grade” value worked out at 3.6 ± 0.3. For the same compound, the Kd in assay [1] is 340 nM.

In the case of `COc1c(CC(N)=O)cc(C(C)(C)C)cc1NC(=O)Nc1ccc(Oc2ccnc(Nc3ccccc3)c2)c2ccccc12` [Example 13, 2-(5-(tert-Butyl)-2-methoxy-3-(3-(4-((2-(phenylamino)pyridin-4-yl)oxy)naphthalen-1-yl)ureido)phenyl)acetamide], in assay [2], the “Activity … (histopathology analysis)” value is recorded as “significant activity”; the “Inflammatory cell infiltrate” value was “marked reductions”; the “Ulcer grade and epithelial repair compared to the vehicle control” value was “marked improvements”; the “TNBS LP inflammation” value came out at 2.8 ± 0.5. Moreover, in assay [2], the “TNBS Ulcer grade” value worked out at 2.6 ± 0.7.

As for `COc1c(NC(=O)Nc2ccc(Oc3ccnc(Nc4ccccc4)c3)c3ccccc23)cc(C(C)(C)C)cc1C(=O)NCCN1CCOCC1` [Example 14, 5-(tert-Butyl)-2-methoxy-N-(2-morpholinoethyl)-3-(3-(4-((2-(phenylamino)pyridin-4-yl)oxy)naphthalen-1-yl)ureido)benzamide], in assay [2], the “Activity … (histopathology analysis)” value is on record as “significant activity”; the “Inflammatory cell infiltrate” value is “marked reductions”; the “TNBS LP inflammation” value was 3.6 ± 0.2; the “TNBS Ulcer grade” value is listed as 3.5 ± 0.5.

On to `COc1cc(Nc2cc(Oc3ccc(NC(=O)Nc4cc(C(C)(C)C)cc(CC(N)=O)c4OC)c4ccccc34)ccn2)cc(OC)c1` [Example 30, 2-(5-(tert-Butyl)-3-(3-(4-((2-((3,5-dimethoxyphenyl)amino)pyridin-4-yl)oxy)naphthalen-1-yl)ureido)-2-methoxyphenyl)acetamide], for which, in assay [2], the “Activity … (histopathology analysis)” value is given as “significant activity”; the “Inflammatory cell infiltrate” value is listed as “marked reductions”; the “Ulcer grade and epithelial repair compared to the vehicle control” value was “marked improvements”; the “TNBS LP inflammation” value was determined as 2.5 ± 0.4. Further, in assay [2], the “TNBS Ulcer grade” value is on record as 3.1 ± 0.4.

As to `COc1cc(Nc2cc(Oc3ccc(NC(=O)Nc4cc(C(C)(C)C)cc(P(C)(C)=O)c4OC)c4ccccc34)ccn2)cc(C(N)=O)c1` [Example 37, 3-((4-((4-(3-(5-(tert-butyl)-3-(dimethylphosphoryl)-2-methoxyphenyl)ureido)-naphthalen-1-yl)oxy)pyridin-2-yl)amino)-5-methoxybenzamide], in assay [3] (0.1 mg/mL), the “IL-1β Anterior tissue” value was found to be 480.1 ± 113.7 pg/mL, the “IL-1β Posterior tissue” value was 319.6 ± 64.8 pg/mL and the Cell counts came out at 39.1 ± 7.1. In assay [3] (1 mg/mL), the “IL-1β Anterior tissue” value is 330.4 ± 94.2 pg/mL, the “IL-1β Posterior tissue” value is reported as 285.8 ± 96.4 pg/mL and the Cell counts turned out to be 32.6 ± 9.5. Further, in assay [3] (rats treated with intravitreal endotoxin LPS), the “Cytokine levels in anterior and posterior segments of the eyes” value was “significantly reduced”.
